Molecular target: T1, human NaPi-IIb (Homo sapiens, UniProt O95436)
T1 construct: expressed in transfected cells
T1 sequence (O95436 1-690): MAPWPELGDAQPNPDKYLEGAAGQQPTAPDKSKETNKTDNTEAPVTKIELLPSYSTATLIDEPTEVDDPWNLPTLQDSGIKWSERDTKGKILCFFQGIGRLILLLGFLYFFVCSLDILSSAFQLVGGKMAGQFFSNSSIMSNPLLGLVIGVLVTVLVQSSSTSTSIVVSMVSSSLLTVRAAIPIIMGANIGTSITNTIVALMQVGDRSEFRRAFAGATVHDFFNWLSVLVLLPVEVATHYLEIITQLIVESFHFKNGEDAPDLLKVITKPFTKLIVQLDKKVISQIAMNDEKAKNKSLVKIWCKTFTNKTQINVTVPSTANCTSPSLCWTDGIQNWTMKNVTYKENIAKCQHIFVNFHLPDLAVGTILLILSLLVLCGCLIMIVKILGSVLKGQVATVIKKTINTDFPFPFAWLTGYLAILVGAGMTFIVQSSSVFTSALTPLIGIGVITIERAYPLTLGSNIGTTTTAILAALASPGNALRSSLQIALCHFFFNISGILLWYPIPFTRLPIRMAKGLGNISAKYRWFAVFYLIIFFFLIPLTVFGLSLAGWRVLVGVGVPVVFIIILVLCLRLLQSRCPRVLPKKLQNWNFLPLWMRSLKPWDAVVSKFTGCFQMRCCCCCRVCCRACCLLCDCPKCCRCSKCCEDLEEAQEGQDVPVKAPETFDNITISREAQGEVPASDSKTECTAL
Assay: Inhibitory effect on 33PO4 uptake into human NaPi-IIb-expressing CHO cells
Assay type: cell-based
Details: read-out: IC50
How it was run: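 Stable human NaPi-IIb CHO line (G418-selected), plated and cultured overnight; ³³PO4 added in buffer A and uptake run at room temperature. Cells washed with ice-cold buffer A, then uptake counted by liquid scintillation.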

Compound | IC50
C[C@]12CCCN1N(Cc1cccc(F)c1Cl)C(=O)C(C(=O)Nc1cc(F)c(Br)c(F)c1)=C2O [Example 174] | 2.2 µM
COc1cccc(CN2C(=O)C(C(=O)Nc3ccc(C(F)(F)F)cc3-c3ccc(C(F)(F)F)nc3)=C(O)[C@@]3(C)CCCN23)c1OC [Example 175] | 3.4 µM
COc1ccc(OC)c(CN2C(=O)C(C(=O)Nc3ccc(C(F)(F)F)cc3-c3ccc(C(F)(F)F)nc3)=C(O)[C@@]3(C)CCCN23)c1 [Example 176] | 4 µM
C[C@]12CCCN1N(Cc1cccc(OC(F)F)c1)C(=O)C(C(=O)Nc1ccc(C(F)(F)F)cc1-c1cc(C(F)(F)F)ncn1)=C2O [Example 177] | 11.1 µM
C[C@]12CCCN1N(Cc1ccccc1C#N)C(=O)C(C(=O)Nc1ccc(C(F)(F)F)cc1-c1cc(C(F)(F)F)ncn1)=C2O [Example 178] | 8.2 µM
C[C@]12CCCN1N(Cc1cccc(C#N)c1)C(=O)C(C(=O)Nc1ccc(C(F)(F)F)cc1-c1cc(C(F)(F)F)ncn1)=C2O [Example 179] | 18.9 µM
C[C@]12CCCN1N(Cc1ccccc1Cl)C(=O)C(C(=O)Nc1ccc(C(F)(F)F)cc1-c1cc(C(F)(F)F)ncn1)=C2O [Example 180] | 5.7 µM
C[C@]12CCCN1N(Cc1cccc(Cl)c1)C(=O)C(C(=O)Nc1ccc(C(F)(F)F)cc1-c1cc(C(F)(F)F)ncn1)=C2O [Example 181] | 4.8 µM
C[C@]12CCCN1N(Cc1ccc(Cl)cc1)C(=O)C(C(=O)Nc1ccc(C(F)(F)F)cc1-c1cc(C(F)(F)F)ncn1)=C2O [Example 182] | 5.1 µM
COC(=O)c1cccc(CN2C(=O)C(C(=O)Nc3ccc(C(F)(F)F)cc3-c3cc(C(F)(F)F)ncn3)=C(O)[C@@]3(C)CCCN23)c1 [Example 183] | 9.1 µM
Cc1ccccc1CN1C(=O)C(C(=O)Nc2ccc(C(F)(F)F)cc2-c2cc(C(F)(F)F)ncn2)=C(O)[C@@]2(C)CCCN12 [Example 185] | 4.9 µM
Cc1cccc(CN2C(=O)C(C(=O)Nc3ccc(C(F)(F)F)cc3-c3cc(C(F)(F)F)ncn3)=C(O)[C@@]3(C)CCCN23)c1 [Example 186] | 5.5 µM
Cc1ccc(CN2C(=O)C(C(=O)Nc3ccc(C(F)(F)F)cc3-c3cc(C(F)(F)F)ncn3)=C(O)[C@@]3(C)CCCN23)cc1 [Example 187] | 6.7 µM
C[C@]12CCCN1N(Cc1ccccc1)C(=O)C(C(=O)Nc1ccc(C(F)(F)F)cc1-c1cc(C(F)(F)F)ncn1)=C2O [Example 188] | 6.1 µM
C[C@]12CCCN1N(Cc1cccc(OC(F)(F)F)c1)C(=O)C(C(=O)Nc1ccc(C(F)(F)F)cc1-c1cc(C(F)(F)F)ncn1)=C2O [Example 189] | 5.5 µM
C[C@]12CCCN1N(Cc1cc(F)cc(F)c1)C(=O)C(C(=O)Nc1cc(F)c(Br)c(F)c1)=C2O [Example 190] | 5.1 µM
C[C@]12CCCN1N(Cc1ccc(F)c(F)c1)C(=O)C(C(=O)Nc1cc(F)c(Br)c(F)c1)=C2O [Example 191] | 14.5 µM
C[C@]12CCCN1N(Cc1ccc(F)cc1F)C(=O)C(C(=O)Nc1cc(F)c(Br)c(F)c1)=C2O [Example 192] | 16.5 µM
C[C@]12CCCN1N(Cc1cc(F)ccc1F)C(=O)C(C(=O)Nc1cc(F)c(Br)c(F)c1)=C2O [Example 193] | 6.4 µM
C[C@]12CCCN1N(Cc1cc(F)c(F)cc1F)C(=O)C(C(=O)Nc1cc(F)c(Br)c(F)c1)=C2O [Example 194] | 19.3 µM
Cc1cccc(CN2C(=O)C(C(=O)Nc3cc(F)c(Br)c(F)c3)=C(O)[C@@]3(C)CCCN23)c1F [Example 195] | 4.6 µM
C[C@]12CCCN1N(Cc1cc(F)c(F)c(F)c1)C(=O)C(C(=O)Nc1cc(F)c(Br)c(F)c1)=C2O [Example 197] | 7 µM
C[C@]12CCCN1N(Cc1cccc(Cl)c1F)C(=O)C(C(=O)Nc1ccc(C(F)(F)F)cc1-c1ccc(C(F)(F)F)nc1)=C2O [Example 198] | 2.4 µM
C[C@]12CCCN1N(Cc1ccc(F)cc1)C(=O)C(C(=O)Nc1ccc(C(F)(F)F)cc1-c1ccc(C(F)(F)F)nc1)=C2O [Example 199] | 1.8 µM
C[C@]12CCCN1N(Cc1ccccc1F)C(=O)C(C(=O)Nc1ccc(C(F)(F)F)cc1-c1ccc(C(F)(F)F)nc1)=C2O [Example 200] | 1.3 µM
C[C@]12CCCN1N(Cc1cccc(F)c1Cl)C(=O)C(C(=O)Nc1ccc(C(F)(F)F)cc1-c1ccc(C(F)(F)F)nc1)=C2O [Example 201] | 1.3 µM
COc1cc(CN2C(=O)C(C(=O)Nc3ccc(C(F)(F)F)cc3-c3ccc(C(F)(F)F)nc3)=C(O)[C@@]3(C)CCCN23)cc(OC)c1 [Example 202] | 6.1 µM

Compound | IC50
C[C@]12CCCN1N(Cc1c(F)cccc1F)C(=O)C(C(=O)Nc1ccc(C(F)(F)F)cc1-c1ccc(C(F)(F)F)nc1)=C2O [Example 203] | 2 µM
C[C@]12CCCN1N(Cc1c(F)cccc1Cl)C(=O)C(C(=O)Nc1ccc(C(F)(F)F)cc1-c1ccc(C(F)(F)F)nc1)=C2O [Example 204] | 1 µM
Cc1cccc(CN2C(=O)C(C(=O)Nc3ccc(C(F)(F)F)cc3-c3ccc(C(F)(F)F)nc3)=C(O)[C@@]3(C)CCCN23)c1F [Example 205] | 1.6 µM
C[C@]12CCCN1N(Cc1cccc(F)c1)C(=O)C(C(=O)Nc1ccc(C(F)(F)F)cc1-c1ccc(C(F)(F)F)nc1)=C2O [Example 206] | 2 µM
C[C@]12CCCN1N(Cc1ccccc1F)C(=O)C(C(=O)Nc1ccc(C(F)(F)F)cc1-c1cc(C(F)(F)F)ncn1)=C2O [Example 207] | 6.5 µM
C[C@]12CCCN1N(Cc1ccc(F)cc1)C(=O)C(C(=O)Nc1ccc(C(F)(F)F)cc1-c1cc(C(F)(F)F)ncn1)=C2O [Example 208] | 6.6 µM
C[C@]12CCCN1N(Cc1cccc(Cl)c1F)C(=O)C(C(=O)Nc1ccc(C(F)(F)F)cc1-c1cc(C(F)(F)F)ncn1)=C2O [Example 209] | 4.8 µM
C[C@]12CCCN1N(Cc1c(F)cccc1Cl)C(=O)C(C(=O)Nc1ccc(C(F)(F)F)cc1-c1cc(C(F)(F)F)ncn1)=C2O [Example 210] | 1.7 µM
C[C@]12CCCN1N(Cc1cc(Cl)ccc1F)C(=O)C(C(=O)Nc1ccc(C(F)(F)F)cc1-c1cc(C(F)(F)F)ncn1)=C2O [Example 211] | 5.7 µM
C[C@]12CCCN1N(Cc1cc(F)cc(F)c1)C(=O)C(C(=O)Nc1ccc(C(F)(F)F)cc1-c1cc(C(F)(F)F)ncn1)=C2O [Example 213] | 6.4 µM
C[C@]12CCCN1N(Cc1ccc(F)c(F)c1)C(=O)C(C(=O)Nc1ccc(C(F)(F)F)cc1-c1cc(C(F)(F)F)ncn1)=C2O [Example 214] | 7 µM
Cc1cccc(CN2C(=O)C(C(=O)Nc3ccc(C(F)(F)F)cc3-c3cc(C(F)(F)F)ncn3)=C(O)[C@@]3(C)CCCN23)c1F [Example 215] | 6.2 µM
C[C@]12CCCN1N(Cc1ccccc1Br)C(=O)C(C(=O)Nc1cc(F)c(Br)c(F)c1)=C2O [Example 216] | 8 µM
C[C@]12CCCN1N(Cc1cc(F)ccc1Br)C(=O)C(C(=O)Nc1cc(F)c(Br)c(F)c1)=C2O [Example 217] | 4.7 µM
C[C@]12CCCN1N(Cc1ccccc1C#N)C(=O)C(C(=O)Nc1cc(F)c(Br)c(F)c1)=C2O [Example 218] | 7.2 µM
C[C@]12CCCN1N(Cc1ccccc1Cl)C(=O)C(C(=O)Nc1cc(F)c(Br)c(F)c1)=C2O [Example 219] | 4.2 µM
C[C@]12CCCN1N(Cc1cccc(C#N)c1)C(=O)C(C(=O)Nc1cc(F)c(Br)c(F)c1)=C2O [Example 220] | 12.2 µM
C[C@]12CCCN1N(Cc1cccc(Cl)c1)C(=O)C(C(=O)Nc1cc(F)c(Br)c(F)c1)=C2O [Example 221] | 6.6 µM
C[C@]12CCCN1N(Cc1ccc(C#N)cc1)C(=O)C(C(=O)Nc1cc(F)c(Br)c(F)c1)=C2O [Example 222] | 17.6 µM
C[C@]12CCCN1N(Cc1ccc(Cl)cc1)C(=O)C(C(=O)Nc1cc(F)c(Br)c(F)c1)=C2O [Example 223] | 17.9 µM
C[C@]12CCCN1N(Cc1ccc(F)c(Br)c1)C(=O)C(C(=O)Nc1cc(F)c(Br)c(F)c1)=C2O [Example 224] | 7.2 µM
C[C@]12CCCN1N(CCCC(F)(F)F)C(=O)C(C(=O)Nc1ccc(C(F)(F)F)cc1-c1cc(C(F)(F)F)ncn1)=C2O [Example 234] | 9.4 µM
CCOC(=O)CCCCCCN1C(=O)C(C(=O)Nc2ccc(C(F)(F)F)cc2-c2ccc(C(F)(F)F)nc2)=C(O)[C@@]2(C)CCCN12 [Example 235, Ethyl 7-[(4aR)-4-hydroxy-4a-methyl-2-oxo-3-[[4-(trifluoromethyl)-2-[6-(trifluoromethyl)pyridin-3-yl]phenyl]carbamoyl]-6,7-dihydro-5H-pyrrolo[1,2-b]pyridazin-1-yl]heptanoate] | 4.8 µM
COCCOCCOCCCCCCCCN1C(=O)C(C(=O)Nc2ccc(C(F)(F)F)cc2-c2cc(C(F)(F)F)ncn2)=C(O)[C@@]2(C)CCCN12 [Example 236] | 24.7 µM
CN1[C@@H](C(C)(C)C)C(O)=C(C(=O)Nc2ccc(Cl)cc2-c2cc(C(F)(F)F)ncn2)C(=O)N1Cc1cccc(F)c1F [Example 237] | 12.8 µM
CN1[C@@H](C(C)(C)C)C(O)=C(C(=O)Nc2ccc(C(F)(F)F)cc2-c2ccc(C(F)(F)F)nc2)C(=O)N1Cc1cccc(F)c1F [Example 238] | 8.5 µM
CN1[C@@H](C(C)(C)C)C(O)=C(C(=O)Nc2ccc(Cl)cc2-c2ccc(C(F)(F)F)nc2)C(=O)N1Cc1cccc(F)c1F [Example 239] | 8.5 µM
